Legend:
[1] = target: Myosin light chain kinase 2, skeletal/cardiac muscle (Homo sapiens) (UniProt Q9H1R3); assay: Inhibition of MYLK2 at 10 uM
[2] = target: Serine/threonine-protein kinase MRCK beta (Homo sapiens) (UniProt Q9Y5S2); assay: Inhibition of MRCKB at 10 uM
[3] = target: Calcium/calmodulin-dependent protein kinase type IV (Homo sapiens) (UniProt Q16566); assay: Inhibition of CAMK4 at 10 uM; details: values are per cent of control
[4] = tested on: Tyrosine-protein kinase ABL1 (Homo sapiens), P00519 [Q252H]; assay: Inhibition of phosphorylated ABL1 Q252H mutant at 10 uM; details: values are per cent of control
[5] = target: Fibroblast growth factor receptor 3 (Homo sapiens) (UniProt P22607); assay: Inhibition of FGFR3 at 10 uM; details: values are per cent of control
Sequence of Fibroblast growth factor receptor 3 (Homo sapiens) (P22607 23-806 limits assumed): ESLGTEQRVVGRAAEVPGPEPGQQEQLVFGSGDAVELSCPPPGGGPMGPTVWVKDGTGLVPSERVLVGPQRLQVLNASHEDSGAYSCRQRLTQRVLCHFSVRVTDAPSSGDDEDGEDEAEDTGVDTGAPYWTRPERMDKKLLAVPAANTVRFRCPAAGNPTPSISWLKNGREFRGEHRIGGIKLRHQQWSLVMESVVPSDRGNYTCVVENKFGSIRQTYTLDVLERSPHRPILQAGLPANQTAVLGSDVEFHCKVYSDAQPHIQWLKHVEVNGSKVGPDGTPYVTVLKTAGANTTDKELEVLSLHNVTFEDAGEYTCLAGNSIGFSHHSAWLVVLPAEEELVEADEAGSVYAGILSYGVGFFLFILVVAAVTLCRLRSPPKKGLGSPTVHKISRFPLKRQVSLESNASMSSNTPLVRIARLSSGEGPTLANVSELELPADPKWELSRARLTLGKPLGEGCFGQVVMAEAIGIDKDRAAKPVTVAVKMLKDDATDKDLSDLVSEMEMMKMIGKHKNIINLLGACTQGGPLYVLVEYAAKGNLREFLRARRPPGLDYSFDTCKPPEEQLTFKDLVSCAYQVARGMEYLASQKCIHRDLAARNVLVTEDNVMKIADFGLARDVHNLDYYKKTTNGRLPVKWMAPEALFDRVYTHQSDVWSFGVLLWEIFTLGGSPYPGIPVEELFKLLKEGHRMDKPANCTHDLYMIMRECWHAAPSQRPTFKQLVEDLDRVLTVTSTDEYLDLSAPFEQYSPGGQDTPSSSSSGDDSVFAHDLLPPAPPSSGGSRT

[6] = target: Mitogen-activated protein kinase 15 (Homo sapiens) (UniProt Q8TD08); assay: Inhibition of ERK8 at 10 uM; details: values are per cent of control
[7] = target: Phosphatidylinositol 4,5-bisphosphate 3-kinase catalytic subunit beta isoform (Homo sapiens) (UniProt P42338); assay: Inhibition of PIK3CB at 10 uM
[8] = target: NUAK family SNF1-like kinase 1 (Homo sapiens) (UniProt O60285); assay: Inhibition of ARK5 at 10 uM; values are per cent of control
[9] = target: Epidermal growth factor receptor (Homo sapiens) (UniProt P00533); assay: Inhibition of EGFR at 10 uM; values are per cent of control
[10] = target: Serine/threonine-protein kinase ULK1 (Homo sapiens) (UniProt O75385); assay: Inhibition of ULK1 at 10 uM; details: values are per cent of control
Sequence of Serine/threonine-protein kinase ULK1 (Homo sapiens) (O75385 whole entry): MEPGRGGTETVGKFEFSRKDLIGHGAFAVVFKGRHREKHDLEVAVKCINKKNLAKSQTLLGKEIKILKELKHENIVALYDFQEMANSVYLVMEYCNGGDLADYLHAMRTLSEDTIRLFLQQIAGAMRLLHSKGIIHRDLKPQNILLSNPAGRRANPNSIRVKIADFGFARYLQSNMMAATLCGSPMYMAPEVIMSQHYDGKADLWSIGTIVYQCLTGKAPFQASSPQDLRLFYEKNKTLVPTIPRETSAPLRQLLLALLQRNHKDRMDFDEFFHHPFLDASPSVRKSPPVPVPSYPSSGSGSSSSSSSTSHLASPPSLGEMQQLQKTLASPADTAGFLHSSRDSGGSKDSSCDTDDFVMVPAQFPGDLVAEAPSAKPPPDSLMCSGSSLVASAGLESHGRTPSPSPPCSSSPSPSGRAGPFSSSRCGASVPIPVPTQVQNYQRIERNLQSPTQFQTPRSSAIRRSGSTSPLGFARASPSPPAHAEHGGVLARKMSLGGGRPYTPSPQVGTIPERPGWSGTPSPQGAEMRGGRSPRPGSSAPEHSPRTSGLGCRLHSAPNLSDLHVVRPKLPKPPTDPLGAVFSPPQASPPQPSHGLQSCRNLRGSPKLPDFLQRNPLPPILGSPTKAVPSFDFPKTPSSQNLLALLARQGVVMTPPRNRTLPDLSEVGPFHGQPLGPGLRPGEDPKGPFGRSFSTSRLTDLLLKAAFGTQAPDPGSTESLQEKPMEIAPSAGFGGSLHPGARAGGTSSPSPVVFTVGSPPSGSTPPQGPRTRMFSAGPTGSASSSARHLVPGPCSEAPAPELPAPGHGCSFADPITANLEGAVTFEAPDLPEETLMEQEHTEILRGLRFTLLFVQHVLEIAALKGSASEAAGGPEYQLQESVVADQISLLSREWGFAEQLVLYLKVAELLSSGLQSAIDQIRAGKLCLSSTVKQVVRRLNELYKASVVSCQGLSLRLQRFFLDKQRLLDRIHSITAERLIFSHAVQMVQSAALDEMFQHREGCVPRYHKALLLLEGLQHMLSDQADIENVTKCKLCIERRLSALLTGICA

[11] = target: Tyrosine-protein kinase Yes (Homo sapiens) (UniProt P07947); assay: Inhibition of YES at 10 uM; details: values are per cent of control
[12] = target: Serine/threonine-protein kinase VRK2 (Homo sapiens) (UniProt Q86Y07); assay: Inhibition of VRK2 at 10 uM; details: values are per cent of control
[13] = target: Vascular endothelial growth factor receptor 1 (Homo sapiens) (UniProt P17948); assay: Inhibition of FLT1 at 10 uM; values are per cent of control
Sequence of Vascular endothelial growth factor receptor 1 (Homo sapiens) (P17948 whole entry): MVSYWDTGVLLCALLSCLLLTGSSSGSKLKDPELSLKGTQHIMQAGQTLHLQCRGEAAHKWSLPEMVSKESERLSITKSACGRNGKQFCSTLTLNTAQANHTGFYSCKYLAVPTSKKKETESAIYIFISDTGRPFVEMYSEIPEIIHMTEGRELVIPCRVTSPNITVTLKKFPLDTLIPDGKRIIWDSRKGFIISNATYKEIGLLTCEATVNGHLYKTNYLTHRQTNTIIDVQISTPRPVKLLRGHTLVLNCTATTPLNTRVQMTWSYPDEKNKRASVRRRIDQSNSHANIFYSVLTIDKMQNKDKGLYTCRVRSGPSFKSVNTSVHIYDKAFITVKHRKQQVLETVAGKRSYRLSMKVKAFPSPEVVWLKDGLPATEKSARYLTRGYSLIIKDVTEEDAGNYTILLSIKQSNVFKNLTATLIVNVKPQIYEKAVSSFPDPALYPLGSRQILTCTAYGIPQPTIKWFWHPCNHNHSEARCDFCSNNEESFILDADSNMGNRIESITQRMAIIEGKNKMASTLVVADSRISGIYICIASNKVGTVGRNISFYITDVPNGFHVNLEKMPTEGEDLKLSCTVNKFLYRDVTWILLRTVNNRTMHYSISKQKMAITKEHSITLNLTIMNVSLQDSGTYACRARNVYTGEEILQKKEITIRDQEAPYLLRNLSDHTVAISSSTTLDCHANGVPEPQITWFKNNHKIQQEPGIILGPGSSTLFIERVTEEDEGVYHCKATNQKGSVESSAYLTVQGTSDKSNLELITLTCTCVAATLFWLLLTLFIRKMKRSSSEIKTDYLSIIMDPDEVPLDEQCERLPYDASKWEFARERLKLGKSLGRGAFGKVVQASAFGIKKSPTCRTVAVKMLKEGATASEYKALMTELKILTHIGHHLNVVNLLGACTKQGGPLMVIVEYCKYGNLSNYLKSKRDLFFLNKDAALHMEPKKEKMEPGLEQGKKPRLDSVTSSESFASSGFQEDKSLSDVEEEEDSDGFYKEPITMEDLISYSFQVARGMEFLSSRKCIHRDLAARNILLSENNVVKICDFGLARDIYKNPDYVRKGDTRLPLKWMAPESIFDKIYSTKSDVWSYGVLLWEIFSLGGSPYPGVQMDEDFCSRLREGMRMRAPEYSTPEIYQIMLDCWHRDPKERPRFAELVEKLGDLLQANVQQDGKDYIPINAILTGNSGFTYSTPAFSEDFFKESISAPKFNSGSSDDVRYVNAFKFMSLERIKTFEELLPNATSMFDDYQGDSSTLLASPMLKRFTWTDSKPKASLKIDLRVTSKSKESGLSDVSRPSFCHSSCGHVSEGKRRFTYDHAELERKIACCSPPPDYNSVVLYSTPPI

[14] = target: Tyrosine-protein kinase BTK (Homo sapiens) (UniProt Q06187); assay: Inhibition of BTK at 10 uM; values are per cent of control
[15] = target: Ephrin type-B receptor 1 (Homo sapiens) (UniProt P54762); assay: Inhibition of EPHB1 at 10 uM; details: values are per cent of control
[16] = target: Dual specificity mitogen-activated protein kinase kinase 2 (Homo sapiens) (UniProt P36507); assay: Inhibition of MEK2 at 10 uM; details: values are per cent of control
Sequence of Dual specificity mitogen-activated protein kinase kinase 2 (Homo sapiens) (P36507 whole entry): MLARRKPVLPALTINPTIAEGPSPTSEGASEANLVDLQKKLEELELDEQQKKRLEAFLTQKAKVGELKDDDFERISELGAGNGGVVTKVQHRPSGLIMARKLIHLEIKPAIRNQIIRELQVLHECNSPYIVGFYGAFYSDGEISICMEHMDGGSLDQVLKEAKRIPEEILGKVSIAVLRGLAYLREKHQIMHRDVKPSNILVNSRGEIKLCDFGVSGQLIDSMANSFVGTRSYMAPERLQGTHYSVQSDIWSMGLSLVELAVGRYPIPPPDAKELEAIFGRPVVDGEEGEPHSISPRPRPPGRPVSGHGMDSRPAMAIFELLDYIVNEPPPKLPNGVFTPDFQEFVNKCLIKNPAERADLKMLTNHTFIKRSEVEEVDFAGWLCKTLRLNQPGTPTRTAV

[17] = target: Ephrin type-B receptor 2 (Homo sapiens) (UniProt P29323); assay: Inhibition of EPHB2 at 10 uM; values are per cent of control
[18] = target: Serine/threonine-protein kinase PAK 3 (Homo sapiens) (UniProt O75914); assay: Inhibition of PAK3 at 10 uM; values are per cent of control
[19] = target: Homeodomain-interacting protein kinase 3 (Homo sapiens) (UniProt Q9H422); assay: Inhibition of HIPK3 at 10 uM; details: values are per cent of control
[20] = target: Mitogen-activated protein kinase kinase kinase 11 (Homo sapiens) (UniProt Q16584); assay: Inhibition of MLK3 at 10 uM
[21] = target: Dual specificity testis-specific protein kinase 1 (Homo sapiens) (UniProt Q15569); assay: Inhibition of TESK1 at 10 uM
[22] = target: Serine/threonine-protein kinase TNNI3K (Homo sapiens) (UniProt Q59H18); assay: Inhibition of TNNI3K at 10 uM; details: values are per cent of control
[23] = target: Tyrosine-protein kinase Lck (Homo sapiens) (UniProt P06239); assay: Inhibition of LCK at 10 uM; values are per cent of control
[24] = target: SRSF protein kinase 1 (Homo sapiens) (UniProt Q96SB4); assay: Inhibition of SRPK1 at 10 uM
[25] = target: Tyrosine-protein kinase ABL1 (Homo sapiens) (UniProt P00519); assay: Inhibition of phosphorylated ABL1 at 10 uM; details: values are per cent of control
[26] = target: Calcium/calmodulin-dependent protein kinase type II subunit gamma (Homo sapiens) (UniProt Q13555); assay: Inhibition of CAMK2G at 10 uM; details: values are per cent of control
[27] = target: Serine/threonine-protein kinase PAK 1 (Homo sapiens) (UniProt Q13153); assay: Inhibition of PAK1 at 10 uM
[28] = target: Serine/threonine-protein kinase Nek1 (Homo sapiens) (UniProt Q96PY6); assay: Inhibition of NEK1 at 10 uM
[29] = target: Casein kinase I isoform gamma-1 (Homo sapiens) (UniProt Q9HCP0); assay: Inhibition of CSNK1G1 at 10 uM; values are per cent of control
[30] = target: Ribosomal protein S6 kinase alpha-5 (Homo sapiens) (UniProt O75582); assay: Inhibition of RPS6KA5 C-terminal domain2 at 10 uM
[31] = target: Serine/threonine-protein kinase SIK3 (Homo sapiens) (UniProt Q9Y2K2); assay: Inhibition of QSK at 10 uM
[32] = target: Wee1-like protein kinase 2 (Homo sapiens) (UniProt P0C1S8); assay: Inhibition of WEE2 at 10 uM; details: values are per cent of control
[33] = target: Cyclin-dependent kinase 13 (Homo sapiens) (UniProt Q14004); assay: Inhibition of CDC2L5 at 10 uM; values are per cent of control
[34] = target: Tyrosine-protein kinase Mer (Homo sapiens) (UniProt Q12866); assay: Inhibition of MERTK at 10 uM; details: values are per cent of control
[35] = target: Dual specificity protein kinase CLK2 (Homo sapiens) (UniProt P49760); assay: Inhibition of CLK2 at 10 uM; details: values are per cent of control
[36] = target: Angiopoietin-1 receptor (Homo sapiens) (UniProt Q02763); assay: Inhibition of TIE2 at 10 uM; values are per cent of control
[37] = target: Hepatocyte growth factor receptor (Homo sapiens) (UniProt P08581); assay: Inhibition of MET at 10 uM
Sequence of Hepatocyte growth factor receptor (Homo sapiens) (P08581 whole entry): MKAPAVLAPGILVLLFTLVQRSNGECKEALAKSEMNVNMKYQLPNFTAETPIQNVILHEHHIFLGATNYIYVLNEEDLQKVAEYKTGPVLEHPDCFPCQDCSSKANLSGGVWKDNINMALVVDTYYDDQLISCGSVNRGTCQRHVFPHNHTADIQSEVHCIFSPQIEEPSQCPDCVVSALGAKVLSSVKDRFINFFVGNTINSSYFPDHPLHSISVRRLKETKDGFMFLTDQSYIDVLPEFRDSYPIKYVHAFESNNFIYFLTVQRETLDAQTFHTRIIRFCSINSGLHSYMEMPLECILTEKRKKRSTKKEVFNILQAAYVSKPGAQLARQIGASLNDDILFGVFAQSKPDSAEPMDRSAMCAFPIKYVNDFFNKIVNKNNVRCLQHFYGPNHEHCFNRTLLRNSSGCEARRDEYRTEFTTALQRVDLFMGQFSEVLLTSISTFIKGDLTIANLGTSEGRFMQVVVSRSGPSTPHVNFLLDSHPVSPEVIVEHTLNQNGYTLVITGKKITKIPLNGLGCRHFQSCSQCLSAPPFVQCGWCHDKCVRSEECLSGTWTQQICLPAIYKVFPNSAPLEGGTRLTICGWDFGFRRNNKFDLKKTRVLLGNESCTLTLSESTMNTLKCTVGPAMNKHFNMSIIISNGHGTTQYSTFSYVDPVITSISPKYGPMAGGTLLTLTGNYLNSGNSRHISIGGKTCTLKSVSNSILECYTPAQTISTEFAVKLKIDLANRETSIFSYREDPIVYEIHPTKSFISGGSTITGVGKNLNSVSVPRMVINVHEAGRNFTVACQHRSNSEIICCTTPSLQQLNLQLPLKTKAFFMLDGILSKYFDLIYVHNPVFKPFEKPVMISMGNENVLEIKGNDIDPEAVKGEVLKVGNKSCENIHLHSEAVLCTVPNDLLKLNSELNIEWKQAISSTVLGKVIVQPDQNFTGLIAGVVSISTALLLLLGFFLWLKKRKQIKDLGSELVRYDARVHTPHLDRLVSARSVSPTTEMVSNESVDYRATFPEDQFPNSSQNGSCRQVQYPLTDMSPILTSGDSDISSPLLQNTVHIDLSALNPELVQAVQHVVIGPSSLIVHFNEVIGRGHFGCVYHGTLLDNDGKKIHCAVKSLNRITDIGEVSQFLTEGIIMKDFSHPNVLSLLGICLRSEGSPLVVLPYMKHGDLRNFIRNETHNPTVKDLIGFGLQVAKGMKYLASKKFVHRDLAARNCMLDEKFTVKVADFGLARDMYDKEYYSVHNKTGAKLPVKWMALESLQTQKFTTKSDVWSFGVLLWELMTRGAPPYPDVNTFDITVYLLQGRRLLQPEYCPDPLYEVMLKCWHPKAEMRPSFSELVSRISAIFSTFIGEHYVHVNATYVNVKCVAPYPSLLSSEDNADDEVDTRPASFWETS

[38] = target: Ephrin type-A receptor 8 (Homo sapiens) (UniProt P29322); assay: Inhibition of EPHA8 at 10 uM; details: values are per cent of control
[39] = target: Serine/threonine-protein kinase pim-1 (Homo sapiens) (UniProt P11309); assay: Inhibition of PIM1 at 10 uM
[40] = target: Casein kinase I isoform alpha (Homo sapiens) (UniProt P48729); assay: Inhibition of CSNK1A1 at 10 uM; values are per cent of control
[41] = target: 5'-AMP-activated protein kinase catalytic subunit alpha-2 (Homo sapiens) (UniProt P54646); assay: Inhibition of AMPK-alpha2 at 10 uM; details: values are per cent of control
[42] = target: Cyclin-dependent kinase 14 (Homo sapiens) (UniProt O94921); assay: Inhibition of PFTK1 at 10 uM; details: values are per cent of control

Work on CCN1CCN(Cc2ccc(NC(=O)c3ccc(C)c(C#Cc4cccnc4)c3)cc2C(F)(F)F)CC1 yielded an inhibition [1] of 3.4%, an inhibition [2] of 88% and a residual binding, % of control [3] of 100%. It also gave a residual binding, % of control [4] of 0.7%, a residual binding, % of control [5] of 0.3% and a residual binding, % of control [6] of 1.8%. It also gave an inhibition [7] of 100%, a level, % of control [8] of 100% and a level, % of control [9] of 3%. For the same compound, the residual binding, % of control [10] was 24%, the residual binding, % of control [11] was 0.1% and the residual binding, % of control [12] was 95%. For the same compound, the level, % of control [13] was 0.5%, the level, % of control [14] was 2% and the residual binding, % of control [15] was 0.5%. The residual binding, % of control [16] was 64%, the level, % of control [17] was 0.1% and the % of control [18] was 3.3%. It also gave a residual binding, % of control [19] of 18%, an inhibition [20] of 17% and an inhibition [21] of 60%. For the same compound, the residual binding, % of control [22] was 0%, the level, % of control [23] was 0.05% and the inhibition [24] was 100%. For the same compound, the residual binding, % of control [25] was 0%, the residual binding, % of control [26] was 95% and the inhibition [27] was 81%. For the same compound, the inhibition [28] was 77%, the level, % of control [29] was 100% and the inhibition [30] was 100%. It also gave an inhibition [31] of 70%, a residual binding, % of control [32] of 100% and a level, % of control [33] of 6.5%. It also gave a residual binding, % of control [34] of 5.2%, a residual binding, % of control [35] of 88% and a % of control [36] of 0.05%. It also gave an inhibition [37] of 73%, a residual binding, % of control [38] of 0% and an inhibition [39] of 84%. It also gave a level, % of control [40] of 75%, a residual binding, % of control [41] of 18% and a residual binding, % of control [42] of 0.85%.
CCN1CCN(Cc2ccc(NC(=O)c3ccc(C)c(C#Cc4cnc5[nH]ccc5c4)c3)cc2C(F)(F)F)CC1 gave an inhibition [1] of 0.15%, an inhibition [2] of 67% and a residual binding, % of control [3] of 100%. The residual binding, % of control [4] was 0.2%, the residual binding, % of control [5] was 0.15% and the residual binding, % of control [6] was 2.6%. For the same compound, the inhibition [7] was 85%, the level, % of control [8] was 95% and the level, % of control [9] was 0.3%. It also gave a residual binding, % of control [10] of 38%, a residual binding, % of control [11] of 0.25% and a residual binding, % of control [12] of 90%. The level, % of control [13] was 0.8%, the level, % of control [14] was 1.2% and the residual binding, % of control [15] was 0.35%. It also gave a residual binding, % of control [16] of 37%, a level, % of control [17] of 0.6% and a % of control [18] of 1.1%. The residual binding, % of control [19] was 25%, the inhibition [20] was 3% and the inhibition [21] was 2.4%. The residual binding, % of control [22] was 0%, the level, % of control [23] was 0.1% and the inhibition [24] was 100%. The residual binding, % of control [25] was 0.05%, the residual binding, % of control [26] was 92% and the inhibition [27] was 62%. The inhibition [28] was 50%, the level, % of control [29] was 100% and the inhibition [30] was 97%. For the same compound, the inhibition [31] was 77%, the residual binding, % of control [32] was 20% and the level, % of control [33] was 13%. For the same compound, the residual binding, % of control [34] was 0.5%, the residual binding, % of control [35] was 100% and the % of control [36] was 0%. It also gave an inhibition [37] of 9.2%, a residual binding, % of control [38] of 0% and an inhibition [39] of 100%. For the same compound, the level, % of control [40] was 89%, the residual binding, % of control [41] was 7.2% and the residual binding, % of control [42] was 1.6%.
